A short description of the data set: Plasma and tumor tissue concentrations following oral administration in VCaP xenograft model (HPLC/MS/MS). To be noted: mouse, 10 mg/kg orally once daily for 3 days. The class given is in vivo, mice. The protocol: The plasma and tumor tissue concentrations of the drug administered orally to a xenograft model using VCaP cells were analyzed as follows.
[Blood collection and tumor tissue extraction] The prepared drug was administered orally at a dose of 10 mg/kg once daily at the same time for 3 days. The mice were sacrificed 2, 6, and 24 hours after the last administration. Blood collection and tumor tissue extraction were performed immediately after sacrifice at each hour. Blood collected from the heart was placed in a K2EDTA tube for 30 minutes and then centrifuged at 15,000 rpm at 4°C for 10 minutes. The supernatant plasma was separated and stored at -20°C for analysis. The extracted tumor tissue was washed in PBS, cut into pieces of approximately 10 mg, and stored at -80°C for analysis.
[Sample Preparation] Cancer tissue was homogenized once at 5,500 rpm for 20 seconds after adding distilled water 9 times the tissue weight using a tissue homogenizer (Precellys Evolution, Bertin Technology). For cancer tissue, 20 µL of the homogenate was mixed with 20 µL of blank plasma sample, 20 µL of internal standard (carbamazepine, 30 ng/mL in acetonitrile), and 140 µL of acetonitrile. For plasma, 20 µL of the plasma sample was mixed with 20 µL of blank liver tissue sample, 20 µL of internal standard, and 140 µL of acetonitrile. Afterwards, the mixed sample was suspended for 10 minutes using a vortex mixer and centrifuged at 13,500 rpm for 10 minutes at room temperature. 140 µL of the supernatant was collected and transferred to an analysis container.
[Sample Analysis] Drug concentrations in cancer tissue and plasma samples were quantified using an HPLC/MS/MS system. 5 µL of the sample prepared in the analytical vessel was injected into the HPLC/MS/MS system for analysis. For drug quantification, a combination of 0.1% formic acid in distilled water and 0.1% formic acid in acetonitrile was used as the mobile phase. The analytical column used was a reverse-phase C18 column, and chromatograms were analyzed using isocratic elution. Ion detection was performed in ESI positive MRM mode, and peak integration was performed using Analyst software version 1.6.4 (Applied Biosystems/MDS SCIEX). Drug concentrations in cancer tissue were calculated by multiplying the concentrations obtained from the analysis of cancer tissue homogenate by a dilution factor of 10.

Where two headings read alike, the source gives them in different places.

For the compound `N#Cc1ccc(N2CCC(C(=O)Nc3ccc(OC4CCN(CC5CCN(c6ccc(N[C@H]7CCC(=O)NC7=O)cc6F)CC5)CC4)cn3)CC2)cc1C(F)(F)F` [Example 2, (S)-1-(4-cyano-3-(trifluoromethyl)phenyl)-N-(5-((1-((1-(4-((2,6-dioxopiperidin-3-yl)amino)-2-fluorophenyl)piperidin-4-yl)methyl)piperidin-4-yl)oxy)pyridin-2-yl)piperidine-4-carboxamide], the concentration at 2 h was determined as 816 ng/mL (plasma, 2 hours after the last administration, read-out: Concentration in Plasma) and 5560 ng/g (tumor tissue, 2 hours after the last administration, read-out: Concentration in Tumor Tissue). In addition, the concentration at 6 h by setting is: (plasma, 6 hours after the last administration, read-out: Concentration in Plasma) 610 ng/mL; (tumor tissue, 6 hours after the last administration, read-out: Concentration in Tumor Tissue) 6130 ng/g. Besides, the concentration at 24 h is 51 ng/mL (plasma, 24 hours after the last administration, read-out: Concentration in Plasma) and 834 ng/g (tumor tissue, 24 hours after the last administration, read-out: Concentration in Tumor Tissue). The Kp at 2 h (tumor tissue / plasma, 2 hours after the last administration, read-out: Tissue to Plasma Ratio) turned out to be 6.78. Moreover, the Kp at 6 h (tumor tissue / plasma, 6 hours after the last administration, read-out: Tissue to Plasma Ratio) amounted to 10.1. Further, for the setting “tumor tissue / plasma, 24 hours after the last administration, read-out: Tissue to Plasma Ratio”, the Kp at 24 h is 16.3.

(Values after patent EP4772505A1, “COMPOUND FOR DEGRADING ANDROGEN RECEPTOR AND MEDICAL USE THEREOF” (Ubix Therapeutics, Inc., priority 2023, dated 2025).)
